Assay results as given in US20260327217A1, “THIAZOLE DERIVATIVES AS TAU AGGREGATION INHIBITORS” (WisTa Laboratories Ltd., priority 2022, published 2026).
“Also recorded” adds a separate entry of the source. Counter-ions that a name gives are not always drawn. Like-named read-outs stand apart in the source and are kept apart here.

Legend:
[1] = toxicity in cells (lactate dehydrogenase assay, 24 hrs); assay type: cell-based; conditions: mouse, 3t6 fibroblasts; concentration at which 50% of cells are killed; 24 hrs exposure; read-out: LD50
Experimental: Toxicity of the compounds described herein was assessed using the fibroblast cells used in the cell-based assay described above to assess EC50. Toxicity was measured by cell numbers after 24 hrs exposure to the compound using a lactate dehydrogenase assay kit TOX-7 (Sigma Biosciences) according to the manufacturer's instructions after lysis of remaining cells. Alternatively, a kit from Promega UK (CytoTox 96) was used, again according to the manufacturer's instructions. LD50 is determined as the concentration of compound at which 50% of cells are killed.

[2] = target: T1, full-length tau (T40; htau40 isoform) / truncated tau (12-kDa fragment) in 3T6 fibroblast cells (Homo sapiens, UniProt P10636); test: cellular tau aggregation inhibition assay (truncated 12-kDa tau / full-length T40 band ratio on immunoblots); assay type: cell-based; conditions: for activity at 2 µM / activity at 20 µM: single concentration test, vs untreated cells, ~1.0 negative, <0.5 positive inhibitor, read-out: Truncated tau/T40 ratio (n = 3); for activity at 20 µM: tested at 20 μM
T1 construct: fibroblast cells (3T6) express full-length tau; PHF-core tau fragment (12-kDa fragment); expressed in transfected cells; host or cells: 3T6 fibroblast cells
T1 sequence (P10636 1-441 isoform P10636-8): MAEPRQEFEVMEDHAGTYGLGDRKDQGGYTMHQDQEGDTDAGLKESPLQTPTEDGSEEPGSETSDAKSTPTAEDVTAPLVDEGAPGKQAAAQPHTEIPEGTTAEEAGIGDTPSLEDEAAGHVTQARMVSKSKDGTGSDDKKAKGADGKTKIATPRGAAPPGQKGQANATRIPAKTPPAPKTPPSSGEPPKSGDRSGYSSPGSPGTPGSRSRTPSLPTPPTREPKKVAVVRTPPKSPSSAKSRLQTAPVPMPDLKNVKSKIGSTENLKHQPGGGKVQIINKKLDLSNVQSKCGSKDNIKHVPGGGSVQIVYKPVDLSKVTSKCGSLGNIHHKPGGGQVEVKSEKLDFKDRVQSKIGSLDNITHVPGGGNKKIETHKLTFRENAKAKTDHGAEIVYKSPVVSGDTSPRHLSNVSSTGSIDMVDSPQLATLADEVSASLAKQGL
Experimental: A cell-based tau aggregation assay was performed as described previously. The process is described in more detail in WO 02/055720. In essence, fibroblast cells (3T6) express full-length tau (“T40”; the htau40 isoform) under control of an inducible promotor, and low constitutive levels of the PHF-core tau fragment (12-kDa fragment). When T40 expression is induced, it undergoes aggregation-dependent truncation within the cell, N-terminally at approximately amino acid residue 295 and C-terminally at approximately residue 390, thereby producing higher levels of the 12-kDa PHF-core domain fragment. Production of the 12-kDa fragment can be blocked in a dose-dependent manner by tau-aggregation inhibitors. Indeed, the quantitation of inhibitory activity of compounds with respect to proteolytic generation of the 12-kDa fragment within cells can be described entirely in terms of the same parameters which describe inhibition of tau-tau binding in vitro. That is, the extent of proteolytic generation of the 12-kDa fragment within cells is determined entirely by the extent to tau-tau binding through the repeat domain.
[…] MTC was included as a reference tau aggregation inhibitor. For single concentration tests. The ratio of the quantity of both of the protein bands at different concentrations of TAI is measured, to correct for the level of expression of full-length tau and for cell density, particularly at high concentration of TAIs.
The inhibitory ratio (IR) is calculated by the equation:
Where IR^x=inhibitory ratio for compound at x mM; S=signal on immunoblot (mean) for truncated tau (trunc. tau) or full-length tau (full tau) bands for compound at 0 or x mM. A ratio of 1.0 indicates no effect, whereas values decreasing from 1.0 indicate increasing inhibitory action. A curve is generated for different concentrations and the EC50 value for the TAI is defined as the concentration at which the ratio of truncated tau: full-length tau is 50% of that ratio measured in the absence of TAI; this is determined graphically.
The concentration at which there is 50% inhibition of the 12-kDa band relative to T40 (referred to as the EC50 value) was calculated from a graph of the protein band ratios relative to those observed in untreated cells.

[3] = target: T2, dGAE (Homo sapiens, UniProt P10636); test: solution-phase sandwich ELISA of dGAE assembly (scAb epitope occlusion); assay type: biochemical; conditions: 100 μM dGAE, 500 μM inhibitor, 24 h assembly; for assembly-dependent occlusion of epitopes: CA4, CE2, 1G2 and 1D12 epitopes; for 1G2 epitope availability / immunoreactivity: scAb 1G2
T2 construct: HMT or Compound 9 added
T2 sequence (P10636 614-708): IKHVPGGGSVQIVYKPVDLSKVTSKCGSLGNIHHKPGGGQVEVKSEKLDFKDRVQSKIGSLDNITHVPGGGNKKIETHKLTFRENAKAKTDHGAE
Experimental: Recombinant dGAE was produced in a bacterial expression system and assembled in the presence of 10 mM DTT by incubation at 37° C. with agitation for 24 h, as described previously. For testing the pharmacological activity, assembly reactions were performed with 100 μM dGAE and 500 μM tau aggregation inhibitor (Compound 9 or HMT) in Protein Lobind tubes (Eppendorf). Compound 9 was dissolved in DMSO (final 0.5%) and HMT in 10 mM phosphate buffer (PB) supplemented with 10 mM DTT. Control tubes with dGAE+DTT in PB and dGAE+DTT in 0.5% DMSO were also set up to allow for comparison of the extent of aggregation. Following a 24 h assembly reaction, the contents from each tube were mixed by pipetting and samples removed for the immunodetection of exposed epitopes using a solution-phase sandwich ELISA.
Ninety-six well Nunc Maxisorp plates were pre-coated with mAb 423 (10 μg/ml), which specifically recognises tau that is C-terminally truncated at Glu391 in the Pronase-resistant PHF core, washed three times with PBS containing 0.1% Tween 20 (PBST) and then blocked with 2% dried milk (Marvel) in PBS. Doubling dilutions of dGAE assembly samples were added from starting concentrations of 10 μg/ml in PBS and incubated for 1 h at 37° C. Bound tau was then detected using scAbs (10 μg/ml) and incubated for 1 h at 37° C. Anti-human C kappa HRP-conjugated secondary antibody was diluted 1:1,000 in 2% dried milk in PBS and incubated for 1 h at 37° C. Pierce 1-Step Ultra TMB-ELISA Substrate Solution was used to develop the reaction which was subsequently stopped with the addition of 1 M H2SO4. Absorbance was measured at 450 nm.

[4] = target: T3, truncated tau (residues 297-390; dGA) / dGAE (residues 297-391), tau-tau binding (Homo sapiens, UniProt P10636); test: in vitro cell-free tau-tau binding assay (B50); conditions: concentration required to inhibit tau-tau binding by 50%
T3 construct: truncated tau (residues 297-390; dGA); another truncated tau species (residues 297-391; dGAE)
T3 sequence (P10636 614-708): as above
From the text: This is described in detail in WO 96/30766 and in [25]. Briefly, a fragment of tau corresponding to the core repeat domain, which has been adsorbed to a solid-phase substrate, is able to capture soluble, full-length tau and bind tau with high affinity. This association confers stability against proteolytic digestion of the aggregated tau molecules. The process is self-propagating and can be blocked selectively by prototype pharmaceutical agents.
More specifically, truncated tau (residues 297-390; dGA) diluted in carbonate buffer (pH 9.6) was bound to the assay plate, and another truncated tau species (residues 297-391; dGAE) was added in the aqueous phase. The aqueous phase binding buffer contained 0.05% Tween-20 and 1% gelatine in phosphate-buffered saline (pH 7.4). Bound dGAE was detected using mAb 423 that recognises a Glu-391 dependent epitope that is absent from the solid-phase dGA.
The concentration of compound required to inhibit the tau-tau binding by 50% is referred to as the B50 value.

[5] = target: T1, full-length tau (T40; htau40 isoform) / truncated tau (12-kDa fragment) in 3T6 fibroblast cells; conditions: previously reported [4, 13]; read-out: EC50 in the cell assay; cited from earlier work
[6] = both AD and frontotemporal dementia; cited from earlier work
[7] = full assay, concentration at which truncated tau:full-length tau ratio is 50% of that without TAI, mean for replicates, NE = no effect, read-out: EC50

Structure (SMILES) | CC50 at 24 h [1] [µM] | activity at 2 µM ([2]; >2.0 aggregation enhanced) [%] | other results
CS(=O)(=O)Nc1nc(C(=O)NCc2ccc[nH]2)cs1 [Compound 1] | 247 ± 16 | 501 ± 40.4 | 
Cn1cccc1CNC(=O)c1csc(NS(C)(=O)=O)n1 [Compound 2] | 253 ± 40 | 86.4 ± 5.9 | 
CS(=O)(=O)Nc1nc(C(=O)NCc2cc3ccccc3[nH]2)cs1 [Compound 3] | 212 ± 14 | 228 ± 44.9 | 
CS(=O)(=O)Nc1nc(C(=O)NCc2nc3cc(Cl)ccc3[nH]2)cs1 [Compound 4] | 264 ± 27 | 480 ± 114 | 
CS(=O)(=O)Nc1nc(C(=O)NCc2cc(-c3ccccc3)[nH]n2)cs1 [Compound 5] | 252 ± 23 | 72.7 ± 11.3 | 
CC(C)(C)CCNC(=O)c1csc(NS(C)(=O)=O)n1 [Compound 6] | 217 ± 2.7 | 88.8 ± 5.7 | 
CN(c1nc(C(=O)NCc2ccc[nH]2)cs1)S(C)(=O)=O [Compound 7] | 216 ± 46 | 44.4 ± 20.8 | 
CN(c1nc(C(=O)NCc2cccn2C)cs1)S(C)(=O)=O [Compound 8] | 204 ± 39 | 7.8 ± 1.4 | 
CN(c1nc(C(=O)NCc2cc(-c3ccccc3)[nH]n2)cs1)S(C)(=O)=O [Compound 9] | 80.1 ± 45 |  | assembly-dependent occlusion of epitopes [3]: Epitope exposure was less complete; 1G2 epitope availability / immunoreactivity [3]: comparable to HMT; exposure of the CA4 and 1D12 epitopes ([3]; scAbs CA4 and 1D12): only partial exposure; IC50 [4]: > 500 µM; EC50 [2, 7]: 4.82 µM; activity in cell-based aggregation assay (in words) ([2]; qualitative statement): lower potency; activity at 2 µM ([2]; tested at 2 μM): 26.6 ± 6.1%; EC50 ([2]; single experiment, FIG. 2, read-out: EC50 (50% inhibition of the lower 12-kDa band)): 3.65 µM
CN(c1nc(C(=O)NCCC(C)(C)C)cs1)S(C)(=O)=O [Compound 10] | 191 ± 26 | 49.6 ± 9.6 | EC50 [2, 7]: 29 µM
Cn1cccc1CNC(=O)c1csc(NS(=O)(=O)CCO)n1 [Compound 11] | 222 ± 35 | 91.7 ± 18.8 | 
O=C(NCc1nc2cc(Cl)ccc2[nH]1)c1csc(NS(=O)(=O)CCO)n1 [Compound 12] | 197 ± 11.9 |  | activity at 20 µM [2]: 101 ± 8.8%
O=C(NCc1cc(-c2ccccc2)[nH]n1)c1csc(NS(=O)(=O)CCO)n1 [Compound 13] | 197 ± 8.1 |  | activity at 20 µM [2]: 112 ± 16.2%
CC(C)(C)CCNC(=O)c1csc(NS(=O)(=O)CCO)n1 [Compound 14] | 263 ± 39 |  | EC50 [2, 7]: 3.7 µM; activity at 2 µM ([2]; tested at 2 μM): 38.1 ± 14.6%
O=C(NCc1ccc[nH]1)c1csc(NS(=O)(=O)CF)n1 [Compound 15] | 221 ± 35 | 120 ± 25.7 | 
Cn1cccc1CNC(=O)c1csc(NS(=O)(=O)CF)n1 [Compound 16] | 236 ± 25 |  | activity at 20 µM [2]: 62.8 ± 5.1%
O=C(NCc1cc2ccccc2[nH]1)c1csc(NS(=O)(=O)CF)n1 [Compound 17] | 228 ± 40 |  | activity at 2 µM ([2]; tested at 2 μM): 53.2 ± 15%
O=C(NCc1nc2ccc(Cl)cc2[nH]1)c1csc(NS(=O)(=O)CF)n1 [Compound 18] | 225 ± 38 | 14.1 ± 3.9 | 
O=C(NCc1cc(-c2ccccc2)[nH]n1)c1csc(NS(=O)(=O)CF)n1 [Compound 19] | 231 ± 38 | 197 ± 94.6 | 
CC(C)(C)CCNC(=O)c1csc(NS(=O)(=O)CF)n1 [Compound 20] | 186 ± 13 | 80.3 ± 42.4 | 
CNS(=O)(=O)Nc1nc(C(=O)NCc2cc3ccccc3[nH]2)cs1 [Compound 21] | 227 ± 30 | 217 ± 85.6 | 
CNS(=O)(=O)Nc1nc(C(=O)NCc2nc3cc(Cl)ccc3[nH]2)cs1 [Compound 22] | 228 ± 36 | 136 ± 59.1 | 
CNS(=O)(=O)Nc1nc(C(=O)NCc2cc(-c3ccccc3)[nH]n2)cs1 [Compound 23] | 226 ± 40 | 98.5 ± 10.1 | 
CNS(=O)(=O)Nc1nc(C(=O)NCCC(C)(C)C)cs1 [Compound 24] | 235 ± 44 | 349 ± 106 | 
O=C(NCc1nc2cc(Cl)ccc2[nH]1)c1csc(NS(=O)(=O)c2c[nH]c3ccccc23)n1 [Compound 25] | 202 ± 9.3 |  | IC50 [4]: 612 µM; activity at 20 µM [2]: 91.1 ± 10%
O=C(NCc1cc(-c2ccccc2)[nH]n1)c1csc(NS(=O)(=O)c2c[nH]c3ccccc23)n1 [Compound 26] | 188 ± 11 |  | IC50 [4]: 616 µM; activity at 20 µM [2]: 132 ± 8.4%
CN(C)c1ccc2c(c1)Sc1cc(N(C)C)ccc1N2 [HMT, Hydromethylthionine, reference compound] |  |  | assembly-dependent occlusion of epitopes [3]: assembly-dependent occlusion of these epitopes did not occur; 1G2 epitope availability / immunoreactivity [3]: remained partially occluded; CE2 epitope availability / immunoreactivity ([3]; scAb CE2): became more available in the HMT-treated sample than in the soluble pre-assembly sample; also recorded: prevented the conformational changes in the CE2 epitope responsible for early loss of immunoreactivity; EC50 [5]: 0.6 µM
CN(C)c1ccc2c(c1)Sc1cc(N(C)C)ccc1N2 [HMTM, Hydromethylthionine mesylate] |  |  | pharmacological activity on clinical decline and brain atrophy [6]: exposure-dependent pharmacological activity on clinical decline and brain atrophy
CN(C)c1ccc2nc3ccc(N(C)C)cc3[s+]c2c1.[Cl-] [MT, reference compound] |  |  | tau aggregation level, % of that measured in its absence ([2]; MT at 1 μM): 9.6%
